The nature of the first data set: CHI Log D procedure. Format: physicochemical. Particulars: pH 7.4.
As to `CC(=O)N[C@@H](Cc1ccccc1)C(=O)N[C@@H](CC(=O)O)C(=O)N[C@@H](C)C(=O)N[C@]1(C)CCCCCCC=CCOC(=O)N2CC[C@@](C(=O)N[C@@H](Cc3ccccc3)C(=O)N[C@@H](Cc3c[nH]c4ccccc34)C(=O)N[C@@H](CCC(N)=O)C(N)=O)(C2)NC(=O)[C@H](C(C)C)NC(=O)[C@H](Cc2ccccc2)NC(=O)[C@H](C)NC(=O)[C@H](C)NC(=O)[C@H](Cc2ccccc2)NC(=O)[C@H](CC(=O)O)NC1=O` (single isomer, unassigned) [I-99, Ac-Phe-Asp-Ala-R8-Asp-Phe-Ala-Ala-Phe-Val-PyrS-Phe-Trp-Gln-NH2], the chromatographic logD is 1.99.
`COc1cccc(C[C@H](NC(=O)[C@]23CCN(C2)C(=O)OCC=CCCCCCC[C@@](C)(NC(=O)[C@H](C)NC(=O)[C@H](CC(=O)O)NC(=O)[C@H](Cc2ccccc2)NC(C)=O)C(=O)N[C@@H](CC(=O)O)C(=O)N[C@@H](CC(=O)O)C(=O)N[C@@H](C)C(=O)N[C@@H](C)C(=O)N[C@@H](Cc2ccccc2)C(=O)N[C@@H](C(C)C)C(=O)N3)C(=O)N[C@@H](Cc2c[nH]c3ccccc23)C(=O)N[C@@H](CCC(N)=O)C(N)=O)c1` (single isomer, unassigned) [I-102, Ac-Phe-Asp-Ala-R8-Asp-Asp-Ala-Ala-Phe-Val-PyrS-3OMeF-Trp-Gln-NH2]: the “CHI Log D” value is recorded as 1.274.
Still for that read-out and setting: the same measure for `CC(=O)N[C@@H](Cc1ccccc1)C(=O)N[C@@H](CC(=O)O)C(=O)N[C@@H](C)C(=O)N[C@]1(C)CCCCCCC=CCOC(=O)N2CC[C@@](C(=O)N[C@@H](Cc3ccccc3C(N)=O)C(=O)N[C@@H](Cc3c[nH]c4ccccc34)C(=O)N[C@@H](CCC(N)=O)C(N)=O)(C2)NC(=O)[C@H](C(C)C)NC(=O)[C@H](Cc2ccccc2)NC(=O)[C@H](C)NC(=O)[C@H](C)NC(=O)[C@H](CC(=O)O)NC(=O)[C@H](CC(=O)O)NC1=O` (single isomer, unassigned) [I-106, Ac-Phe-Asp-Ala-R8-Asp-Asp-Ala-Ala-Phe-Val-PyrS-2CBMF-Trp-Gln-NH2]: 1.038; for `CCCC[C@@H]1NC(=O)[C@H](CC(=O)O)NC(=O)C2(CCCC=CCCCCCC[C@@](C)(C(=O)N[C@@H](Cc3ccccc3)C(=O)N[C@@H](Cc3c[nH]c4ccccc34)C(=O)N[C@@H](CCC(N)=O)C(N)=O)NC(=O)[C@H](C(C)C)NC(=O)[C@H](Cc3ccccc3)NC(=O)[C@H](C)NC(=O)[C@H](C)NC1=O)CCCC=CC[C@]1(CCCN1C(C)=O)C(=O)N[C@@H](CC(=O)O)C(=O)N[C@@H](C)C(=O)N2` (single isomer, unassigned) [I-139, Ac-PL3-Asp-Ala-B5-Asp-nLeu-Ala-Ala-Phe-Val-S8-Phe-Trp-Gln-NH2]: 2.834.
Consider `CC(=O)N[C@@H](Cc1ccccc1)C(=O)N[C@@H](CC(=O)O)C(=O)N[C@@H](C)C(=O)N[C@]1(C)CCCCCCC=CCOC(=O)N2CC[C@@](C(=O)N[C@@H](CCC(=O)O)C(=O)N[C@@H](Cc3c[nH]c4ccccc34)C(=O)N[C@@H](CCC(N)=O)C(N)=O)(C2)NC(=O)[C@H](C(C)C)NC(=O)[C@H](Cc2ccccc2)NC(=O)[C@H](C)NC(=O)[C@H](C)NC(=O)[C@H](CC(=O)O)NC(=O)[C@H](CC(=O)O)NC1=O` (single isomer, unassigned) [I-162, Ac-Phe-Asp-Ala-R8-Asp-Asp-Ala-Ala-Phe-Val-PyrS-Glu-Trp-Gln-NH2], for which the “CHI Log D” value turned out to be 0.827.
Take `CC(=O)N1CCC[C@]12CC=CCCCC1(CCCC=CCCCCCC[C@@](C)(C(=O)N[C@@H](Cc3ccccc3)C(=O)N[C@@H](Cc3c[nH]c4ccccc34)C(=O)N[C@@H](CCC(N)=O)C(N)=O)NC(=O)[C@H](C(C)C)NC(=O)[C@H](Cc3ccccc3)NC(=O)[C@H](C)NC(=O)[C@H](C)NC(=O)[C@@](C)(CC(C)C)NC(=O)[C@H](CC(=O)O)NC1=O)NC(=O)[C@H](C)NC(=O)[C@H](CC(=O)O)NC2=O` (single isomer, unassigned) [I-216, Ac-PL3-Asp-Ala-B5-Asp-DaMeL-Ala-Ala-Phe-Val-S8-Phe-Trp-Gln-NH2]: the “CHI Log D” value is listed as 2.867.

Staying with this data set, now noted: pH 7.4, CHI Log D.
The compound `COc1cccc(C[C@H](NC(=O)[C@]23CCN(C2)C(=O)OCC=CCCCCCC[C@@](C)(NC(=O)[C@H](C)NC(=O)[C@H](CC(=O)O)NC(=O)[C@H](Cc2ccccc2)NC(C)=O)C(=O)N[C@@H](CC(=O)O)C(=O)N[C@@H](CC(=O)O)C(=O)N[C@@H](C)C(=O)N[C@@H](C)C(=O)N[C@@H](Cc2ccccc2)C(=O)N[C@@H](C(C)C)C(=O)N3)C(=O)N[C@@H](Cc2c[nH]c3ccccc23)C(=O)N[C@@H](CCC(N)=O)C(N)=O)c1` (single isomer, unassigned) [I-101, Ac-Phe-Asp-Ala-R8-Asp-Asp-Ala-Ala-Phe-Val-PyrS-3OMeF-Trp-Gln-NH2] showed a chromatographic logD of 1.33.
On the same count and under the same terms, the same measure for `CC(=O)N[C@@H](Cc1ccccc1)C(=O)N[C@@H](CC(=O)O)C(=O)N[C@@H](C)C(=O)N[C@]1(C)CCCCCCC=CCOC(=O)N2CC[C@@](C(=O)N[C@@H](Cc3ccccc3C(N)=O)C(=O)N[C@@H](Cc3c[nH]c4ccccc34)C(=O)N[C@@H](CCC(N)=O)C(N)=O)(C2)NC(=O)[C@H](C(C)C)NC(=O)[C@H](Cc2ccccc2)NC(=O)[C@H](C)NC(=O)[C@H](C)NC(=O)[C@H](CC(=O)O)NC(=O)[C@H](CC(=O)O)NC1=O` (single isomer, unassigned) [I-105, Ac-Phe-Asp-Ala-R8-Asp-Asp-Ala-Ala-Phe-Val-PyrS-2CBMF-Trp-Gln-NH2]: 1.03.
On to `CC(=O)N[C@@H](Cc1ccccc1)C(=O)N[C@@H](CC(=O)O)C(=O)N[C@@H](C)C(=O)N[C@]1(C)CCCCCCC=CCOC(=O)N2CC[C@@](C(=O)N[C@@H](Cc3ccccc3)C(=O)N[C@@H](Cc3c[nH]c4ccccc34)C(=O)N[C@@H](CCC(N)=O)C(N)=O)(C2)NC(=O)[C@H](C(C)C)NC(=O)[C@H](Cc2cccc(C(N)=O)c2)NC(=O)[C@H](C)NC(=O)[C@H](C)NC(=O)[C@H](CC(=O)O)NC(=O)[C@H](CC(=O)O)NC1=O` (single isomer, unassigned) [I-108, Ac-Phe-Asp-Ala-R8-Asp-Asp-Ala-Ala-3CBMF-Val-PyrS-Phe-Trp-Gln-NH2], for which the chromatographic logD was determined as 1.15.
Same read-out and setting: the same measure for `CC(=O)N[C@@H](Cc1ccccc1)C(=O)N[C@@H](CC(=O)O)C(=O)N[C@@H](C)C(=O)N[C@]1(C)CCCCCCC=CCOC(=O)N2CC[C@@](C(=O)N[C@@H](Cc3ccccc3)C(=O)N[C@@H](Cc3c[nH]c4ccccc34)C(=O)N[C@@H](CCC(N)=O)C(N)=O)(C2)NC(=O)[C@H](C(C)C)NC(=O)[C@H](Cc2ccc3ccccc3c2)NC(=O)[C@H](C)NC(=O)[C@H](C)NC(=O)[C@H](CC(=O)O)NC(=O)[C@H](CC(=O)O)NC1=O` (single isomer, unassigned) [I-112, Ac-Phe-Asp-Ala-R8-Asp-Asp-Ala-Ala-2NapA-Val-PyrS-Phe-Trp-Gln-NH2]: 1.4; for `CC(=O)N[C@@H](Cc1ccccc1)C(=O)N[C@@H](CC(=O)O)C(=O)N[C@@H](C)C(=O)N[C@]1(C)CCCCCCC=CCOC(=O)N2CC[C@@](C(=O)N[C@@H](Cc3ccccc3)C(=O)N[C@@H](Cc3c[nH]c4ccccc34)C(=O)N[C@@H](CCC(N)=O)C(N)=O)(C2)NC(=O)[C@H](C(C)C)NC(=O)[C@H](CCc2ccccc2)NC(=O)[C@H](C)NC(=O)[C@H](C)NC(=O)[C@H](CC(=O)O)NC(=O)[C@H](CC(=O)O)NC1=O` (single isomer, unassigned) [I-117, Ac-Phe-Asp-Ala-R8-Asp-Asp-Ala-Ala-hPhe-Val-PyrS-Phe-Trp-Gln-NH2]: 1.33.
Same read-out and setting: the value for `CC(=O)N[C@@H](Cc1ccccc1)C(=O)N[C@@H](CC(=O)O)C(=O)N[C@@H](C)C(=O)N[C@]1(C)CCCCCCC=CCOC(=O)N2CC[C@@](C(=O)N[C@@H](CC(=O)O)C(=O)N[C@@H](Cc3c[nH]c4ccccc34)C(=O)N[C@@H](CCC(N)=O)C(N)=O)(C2)NC(=O)[C@H](C(C)C)NC(=O)[C@H](Cc2ccccc2)NC(=O)[C@H](C)NC(=O)[C@H](C)NC(=O)[C@H](CC(=O)O)NC(=O)[C@H](CC(=O)O)NC1=O` (single isomer, unassigned) [I-122, Ac-Phe-Asp-Ala-R8-Asp-Asp-Ala-Ala-Phe-Val-PyrS-Asp-Trp-Gln-NH2] was 0.84; that for `CCCC[C@@H]1NC(=O)[C@H](CC(=O)O)NC(=O)C2(CCCC=CCCCCCC[C@@](C)(C(=O)N[C@@H](Cc3ccccc3)C(=O)N[C@@H](Cc3c[nH]c4ccccc34)C(=O)N[C@@H](CCC(N)=O)C(N)=O)NC(=O)[C@H](C(C)C)NC(=O)[C@H](Cc3ccccc3)NC(=O)[C@H](C)NC(=O)[C@H](C)NC1=O)CCCC=CC[C@]1(CCCN1C(C)=O)C(=O)N[C@@H](CC(=O)O)C(=O)N[C@@H](C)C(=O)N2` (single isomer, unassigned) [I-138, Ac-PL3-Asp-Ala-B5-Asp-nLeu-Ala-Ala-Phe-Val-S8-Phe-Trp-Gln-NH2] was 1.81.
On the same count and under the same terms, the value for `CC(=O)N[C@@H](Cc1ccccc1)C(=O)N[C@@H](CC(=O)O)C(=O)N[C@@H](C)C(=O)N[C@]1(C)CCCCCCC=CCOC(=O)N2CC[C@@](C(=O)N[C@@H](CCC(=O)O)C(=O)N[C@@H](Cc3c[nH]c4ccccc34)C(=O)N[C@@H](CCC(N)=O)C(N)=O)(C2)NC(=O)[C@H](C(C)C)NC(=O)[C@H](Cc2ccccc2)NC(=O)[C@H](C)NC(=O)[C@H](C)NC(=O)[C@H](CC(=O)O)NC(=O)[C@H](CC(=O)O)NC1=O` (single isomer, unassigned) [I-161, Ac-Phe-Asp-Ala-R8-Asp-Asp-Ala-Ala-Phe-Val-PyrS-Glu-Trp-Gln-NH2] was 0.816; that for `CC(=O)N1CCC[C@]12CC=CCCCC1(CCCC=CCCCCCC[C@@](C)(C(=O)N[C@@H](Cc3ccccc3)C(=O)N[C@@H](Cc3c[nH]c4ccccc34)C(=O)N[C@@H](CCC(N)=O)C(N)=O)NC(=O)[C@H](C(C)C)NC(=O)[C@H](Cc3ccccc3)NC(=O)[C@H](C)NC(=O)[C@H](C)NC(=O)[C@@](C)(CC(C)C)NC(=O)[C@H](CC(=O)O)NC1=O)NC(=O)[C@H](C)NC(=O)[C@H](CC(=O)O)NC2=O` (single isomer, unassigned) [I-215, Ac-PL3-Asp-Ala-B5-Asp-DaMeL-Ala-Ala-Phe-Val-S8-Phe-Trp-Gln-NH2] was 2.87.
With `CC(=O)N1CCC[C@]12CC=CCCCC1(CCCC=CCCCCCC[C@@](C)(C(=O)N[C@@H](Cc3ccc(Cl)cc3)C(=O)N[C@@H](Cc3c[nH]c4ccccc34)C(=O)N[C@@H](CCC(N)=O)C(N)=O)NC(=O)[C@H](C(C)C)NC(=O)[C@H](Cc3ccccc3)NC(=O)[C@H](C)NC(=O)[C@H](C)NC(=O)[C@H](CC(=O)O)NC(=O)[C@H](CC(=O)O)NC1=O)NC(=O)[C@H](C)NC(=O)[C@H](CC(=O)O)NC2=O` (single isomer, unassigned) [I-312, Ac-PL3-Asp-Ala-B5-Asp-Asp-Ala-Ala-Phe-Val-S8-4C1F-Trp-Gln-NH2], the chromatographic logD worked out at 2.13.

In general, chromatographic logD refers to lipophilicity estimated from chromatographic retention. Lower therefore signals lower lipophilicity.

Values taken from patent US20240116985A1, “STAPLED PEPTIDES AND METHODS THEREOF” (priority 2020, published 2024).
